We go through 24 compounds from US8563730B2, “Pyrazole and fused pyrazole glucokinase activators” (Takeda San Diego, Inc., priority 2008, dated 2013).

In this experiment the target is T1, GK (glucokinase, residues 12-465) (Homo sapiens, UniProt P35557).
T1 construct: I.D. No. 1 corresponds to residues 12-465 of glucokinase; made in house; host or cells: DH10b-T1r E. coli
T1 sequence (P35557 with tags, fused parts or gaps isoform P35557-2): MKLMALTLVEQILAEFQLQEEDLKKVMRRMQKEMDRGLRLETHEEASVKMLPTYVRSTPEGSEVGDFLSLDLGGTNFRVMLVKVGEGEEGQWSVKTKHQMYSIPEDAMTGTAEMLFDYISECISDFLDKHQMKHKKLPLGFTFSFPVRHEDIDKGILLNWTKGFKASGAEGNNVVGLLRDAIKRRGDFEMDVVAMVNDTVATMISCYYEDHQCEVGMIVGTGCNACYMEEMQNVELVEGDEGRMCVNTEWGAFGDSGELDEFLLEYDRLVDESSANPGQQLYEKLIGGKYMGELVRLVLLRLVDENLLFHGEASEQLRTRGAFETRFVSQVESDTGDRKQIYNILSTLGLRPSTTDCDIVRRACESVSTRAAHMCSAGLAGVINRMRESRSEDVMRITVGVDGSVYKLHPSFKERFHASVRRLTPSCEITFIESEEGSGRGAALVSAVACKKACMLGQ
Kind of experiment: enzymatic glucokinase activity assay (ATP consumption, KinaseGlo luminescence). Type of experiment: biochemical. Conditions: 5 μM ATP, 5 mM Glucose, reported as bins; for EC50: Kact = concentration that displays 50% of the maximal increase in GK activity, 60 min, room temperature, read-out: pKact. The essentials: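 E. coli-expressed recombinant GK purified by two anion-exchange steps. Reaction in 25 mM Hepes pH 7.2, 10 mM MgCl2, 1 mM DTT, 5 μM ATP, 5 mM glucose, 2% DMSO, 60 min at room temperature. ATP consumption quantified by KinaseGlo luminescence; pKact and % ACTmax derived by non-linear curve fitting.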
Background: Kinase-Glo measures the ATP left after a reaction by luminescence.

[1] abbreviates: calculated maximal gain in GK enzyme activity at a saturating concentration of the compound, read-out: % ACTmax.
The mark [2] stands for this setting: read-out: % ACTmax, calculated maximal gain in GK enzyme activity at a saturating concentration of the compound.

Read-outs that look alike come from different tables or passages of the source.

For `O=C(Nc1ncc(Cl)s1)[C@@H](CC1CCOCC1)n1ncc2cc(S(=O)(=O)C3CC3)ccc21` [Compound 47, (R)-N-(5-chlorothiazol-2-yl)-2-(5-(cyclopropylsulfonyl)-1H-indazol-1-yl)-3-(tetrahydro-2H-pyran-4-yl)propanamide], the EC50 fell in the range of 3980 to 12600 nM. In addition, the Emax under setting [1] is not below 111%.
With `O=C(Nc1ncc(F)s1)C(CC1CCOCC1)n1ncc2c(S(=O)(=O)C3CC3)c(OC(F)F)ccc21` (stereo not drawn) [Compound 87, 2-(4-(cyclopropylsulfonyl)-5-(difluoromethoxy)-1H-indazol-1-yl)-N-(5-fluorothiazol-2-yl)-3-(tetrahydro-2H-pyran-4-yl)propanamide], the EC50 was in the range of 1580 to 3160 nM. For the same compound, the Emax under setting [1] was 90 to 100%.
Turning to `O=C(Nc1ncc(F)s1)C(CC1CCOCC1)n1ncc2c(S(=O)(=O)C3CC3)cc(F)cc21` (stereo not drawn) [Compound 115, 2-(4-(cyclopropylsulfonyl)-6-fluoro-1H-indazol-1-yl)-H-(5-fluorothiazol-2-yl)-3-(tetrahydro-2H-pyran-4-yl)propanamide], the EC50 is not above 316 nM. Further, the Emax under setting [1] is 106 to 110%.
In the case of `O=C1CC[C@H](C[C@@H](C(=O)Nc2ncc(Cl)s2)n2ncc3c(S(=O)(=O)C4CC4)cccc32)C1` [Compound 113, (S)-N-(5-chlorothiazol-2-yl)-2-(4-(cyclopropylsulfonyl)-1H-indazol-1-yl)-3-((R)-3-oxocyclopentyl)propanamide], the EC50 lay in the range of 398 to 1260 nM. Besides, under setting [1], the Emax is 101 to 105%.
For the compound `O=C(Nc1ncc(Cl)s1)C(CC1CCOCC1)n1ncc2c(S(=O)(=O)C3CC3)cc(F)cc21` (stereo not drawn) [Compound 67, N-(5-chlorothiazol-2-yl)-2-(4-(cyclopropylsulfonyl)-6-fluoro-1H-indazol-1-yl)-3-(tetrahydro-2H-pyran-4-yl)propanamide], the EC50 was not above 316 nM. Further, the Emax under setting [1] was 106 to 110%.
For `CS(=O)(=O)c1cccc2c1cnn2C(CC1CCOCC1)C(=O)Nc1ncc(F)s1` (stereo not drawn) [Compound 41, N-(5-fluorothiazol-2-yl)-2-(4-(methylsulfonyl)-1H-indazole-1-yl)-3-(tetrahydro-2H-pyran-4-yl)propanamide], the EC50 lay within 1580 to 3160 nM. In addition, under setting [1], the Emax was not above 90%.
The like results for `O=C(Nc1ncc(F)s1)[C@@H](CC1CCOCC1)n1cc(S(=O)(=O)C2CCCC2)cn1` [Compound 43, (R)-2-(4-(cyclopentylsulfonyl)-1H-pyrazol-1-yl)-N-(5-fluorothiazol-2-yl)-3-(tetrahydro-2H-pyran-4-yl)propanamide] were, in that order, not below 15800 nM and not above 90%.
The corresponding values for `Nc1cc(S(=O)(=O)C2CC2)c2cnn([C@@H](CC3CCOCC3)C(=O)Nc3cnccn3)c2n1` [Compound 164, (S)-2-(6-amino-4-(cyclopropylsulfonyl)-1H-pyrazolo[3,4-b]pyridin-1-yl)-N-(pyrazin-2-yl)-3-(tetrahydro-2H-pyran-4-yl)propanamide] are 398 to 1260 nM and 106 to 110%.
As to `CC(C)(C)S(=O)(=O)c1cnn([C@@H](CC2CCOCC2)C(=O)Nc2ncc(F)s2)c1` [Compound 53, (S)-2-(4-(tert-butylsulfonyl)-1H-pyrazol-1-yl)-N-(5-fluorothiazol-2-yl)-3-(tetrahydro-2H-pyran-4-yl)propanamide], the EC50 is not below 15800 nM. Also, the Emax under setting [1] is not above 90%.
The corresponding values for `Cn1ccc(NC(=O)C(CC2CCOCC2)n2ncc3c(S(=O)(=O)C4CC4)ccnc32)n1` (stereo not drawn) [Compound 95, 2-(4-(cyclopropylsulfonyl)-1H-pyrazolo[3,4-b]pyridin-1-yl)-N-(1-methyl-1H-pyrazol-3-yl)-3-(tetrahydro-2H-pyran-4-yl)propanamide] are 1580 to 3160 nM and 101 to 105%.
For the compound `NC(=O)c1ccc(NC(=O)[C@@H](CC2CCOCC2)n2ncc3c(S(=O)(=O)C4CC4)cccc32)nc1` [Compound 108, (R)-6-(2-(4-(cyclopropylsulfonyl)-1H-indazol-1-yl)-3-(tetrahydro-2H-pyran-4-yl)propanamido)nicotinamide], the EC50 lay in the range of 3980 to 12600 nM. In addition, under setting [2], the Emax was not below 111%.
Regarding `O=C(Nc1cnccn1)C(CC1CCOCC1)n1cc2c(S(=O)(=O)C3CC3)cc(Cl)cc2n1` (stereo not drawn) [Compound 168, 2-(6-chloro-4-(cyclopropylsulfonyl)-2H-indazol-2-yl)-N-(pyrazin-2-yl)-3-(tetrahydro-2H-pyran-4-yl)propanamide], the EC50 was not below 15800 nM. The Emax under setting [1] was not above 90%.
Consider `Nc1cc(S(=O)(=O)C2CC2)c2cnn([C@@H](CC3CCOCC3)C(=O)Nc3ncc(F)s3)c2n1` [Compound 112, (S)-2-(6-amino-4-(cyclopropylsulfonyl)-1H-pyrazol[3,4-b]pyridin-1-yl)-N-(5-fluorothiazol-2-yl)-3-(tetrahydro-2H-pyran-4-yl)propanamide], for which the EC50 was not above 316 nM. In addition, the Emax under setting [2] was 106 to 110%.
With `O=C(Nc1ncc(F)s1)[C@@H](CC1CCOCC1)n1cc(S(=O)(=O)C2CC2)cn1` [Compound 31, (R)-2-(4-(cyclopropylsulfonyl)-1H-pyrazol-1-yl)-N-(5-fluorothiazol-2-yl)-3-(tetrahydro-2H-pyran-4-yl)propanamide], the EC50 is not below 15800 nM. Besides, under setting [1], the Emax was not above 90%.
Consider `O=C(Nc1ncc(Cl)s1)C(CC1CCOCC1)n1cc(S(=O)(=O)C2CC2)cn1` (stereo not drawn) [Compound 4, N-(5-chlorothiazol-2-yl)-2-(4-(cyclopropylsulfonyl)-1H-pyrazol-1-yl)-3-(tetrahydro-2H-pyran-4-yl)propanamide], for which the EC50 lay in the range of 3980 to 12600 nM. Besides, the Emax under setting [2] was 101 to 105%.
For `N#Cc1cc(S(=O)(=O)C2CC2)c2cnn([C@@H](CC3CCOCC3)C(=O)Nc3ncc(F)s3)c2c1` [Compound 133, (S)-2-(6-cyano-4-(cyclopropylsulfonyl)-1H-indazol-1-yl)-N-(5-fluorothiazol-2-yl)-3-(tetrahydro-2H-pyran-4-yl)propanamide], the EC50 is not above 316 nM. For the same compound, the Emax under setting [1] was 101 to 105%.
For `O=C1CC[C@H](C[C@@H](C(=O)Nc2ncc(F)s2)n2ncc3c(S(=O)(=O)C4CC4)cc(Cl)cc32)C1` [Compound 79, (S)-2-(6-chloro-4-(cyclopropylsulfonyl)-1H-indazol-1-yl)-N-(5-fluorothiazol-2-yl)-3-((R)-3-oxocyclopentyl)propanamide], the EC50 was not above 316 nM. The Emax under setting [1] was 90 to 100%.
The corresponding values for `O=C(Nc1ncc(F)s1)C(CC1CCCC1)n1ncc2c(S(=O)(=O)C3CC3)cccc21` (stereo not drawn) [Compound 62, 3-cyclopentyl-2-(4-(cyclopropylsulfonyl)-1H-indazol-1-yl)-N-(5-fluorothiazol-2-yl)propanamide] are 398 to 1260 nM and 90 to 100%.
`COc1ccc2c(cnn2C(CC2CCOCC2)C(=O)Nc2ccn(C)n2)c1S(=O)(=O)C1CC1` (racemic) [Compound 15, 2-(4-(cyclopropylsulfonyl)-5-methoxy-1H-indazol-1-yl)-N-(1-methyl-1H-pyrazol-3-yl)-3-(tetrahydro-2H-pyran-4-yl)propanamide]: the EC50 lay in the range of 398 to 1260 nM. In addition, the Emax under setting [1] was 90 to 100%.
For `O=C(Nc1ncc(F)s1)C(CC1CCOCC1)n1cc(S(=O)(=O)c2ccc(Cl)cc2)cn1` (stereo not drawn) [Compound 29, 2-(4-(4-chlorophenylsulfonyl)-1H-pyrazol-1-yl)-N-(5-fluorothiazol-2-yl)-3-(tetrahydro-2H-pyran-4-yl)propanamide], the EC50 fell in the range of 398 to 1260 nM. Also, under setting [1], the Emax was not below 111%.
In the case of `O=C(Nc1ncc(F)s1)[C@H](CC1CCOCC1)n1cc(S(=O)(=O)C2CCCC2)cn1` [Compound 44, (S)-2-(4-(cyclopentylsulfonyl)-1H-pyrazol-1-yl)-N-(5-fluorothiazol-2-yl)-3-(tetrahydro-2H-pyran-4-yl)propanamide], the EC50 lay within 398 to 1260 nM. In addition, under setting [1], the Emax is not below 111%.
On to `Cn1ccc(NC(=O)[C@H](CC2CCOCC2)n2ncc3c(S(=O)(=O)C4CC4)cccc32)n1` [Compound 119], for which the EC50 was 398 to 1260 nM. For the same compound, the Emax under setting [2] was 90 to 100%.
In the case of `O=C(Nc1cccc(F)n1)C(CC1CCOCC1)n1ncc2c(S(=O)(=O)C3CC3)cccc21` (stereo not drawn) [Compound 147, 2-(4-(cyclopropylsulfonyl)-1H-indazol-1-yl)-N-(6-fluoropyridin-2-yl)-3-(tetrahydro-2H-pyran-4-yl)propanamide], the EC50 was in the range of 1580 to 3160 nM. Moreover, the Emax under setting [1] was not below 111%.
The corresponding values for `Cn1ccc(NC(=O)[C@@H](CC2CCOCC2)n2ncc3c(S(=O)(=O)C4CC4)cncc32)n1` [Compound 160, (R)-2-(4-(cyclopropylsulfonyl)-1H-pyrazolo[3,4-c]pyridin-1-yl)-N-(1-methyl-1H-pyrazol-3-yl)-3-(tetrahydro-2H-pyran-4-yl)propanamide] are 3980 to 12600 nM and 90 to 100%.
